Test results: US7915402B2, “Antioxidant inflammation modulators: oleanolic acid derivatives with saturation in the C-ring” (Reata Pharmaceuticals, Inc., priority 2008, dated 2011)

How the values were obtained:
[1] = Plasma pharmacokinetics after oral dosing in rats; type: in vivo, Sprague Dawley rats; details: SD rats, oral gavage
Protocol: Compound 404-02 reaches high concentrations in the lung and CNS of rats following oral dosing: To assess basic pharmacokinetic parameters following oral dosing, 9 male and 9 female Sprague Dawley (SD) rats were administered 404-02 at 1, 10 or 50 mg/kg doses via oral gavage. Doses were prepared in sesame oil and individualized to body weight on the day of dosing. Blood was drawn at 0, 1, 2, 4, 8 and 24 hours post-dose on days 1 and 15. Blood was collected from the orbital sinus after carbon dioxide/oxygen inhalation for determination of 404-02 plasma concentrations. Plasma was transferred to cryovials and stored at −80° C. until processing and LC-MS/MS analysis. A standard curve was derived for 404-02 in rat plasma, and quantification of experimental results was based on this standard curve.
Pharmacokinetic parameters were obtained using non-compartmental analysis, WinNonlin™ version 5.2.

[2] = CNS and lung tissue concentrations after oral dosing in monkeys; type: in vivo; details: cynomolgus monkey; for excess of mean CNS concentration compared to the dose necessary to suppress inflammation in vitro: vs NO IC50 about 45 nM; for Mean 404-02 CNS Tissue Content (ng/g) ± SEM: day 15, about 3 h after dosing; for Mean 404-02 CNS Tissue Concentration (nM) ± SEM: conversion assumes tissue density 1 g/mL
Protocol: CNS and lung concentrations following oral dosing: 2 male and 2 female cynomolgus monkeys were administered 404-02 at 0.5, 5, 25 or 75 mg/kg/day doses via oral gavage, in addition to a control (non-treatment) group with 2 animals per sex. Animals were sacrificed approximately 3 hours after dosing on day 15 following harvest of brain and lung tissues. Each sample collected was rinsed in 1× isotonic phosphate buffered saline and blotted dry before weighing. Harvested tissue slices were transferred to cryovials and stored at −80° C. until processing and LC-MS/MS analysis. Standard curves were derived for 404-02 in homogenates of these tissues and were used to quantify the day 15 samples.

[3] = CNS and lung tissue concentrations after oral dosing in rats; type: in vivo; details: both sexes, Sprague Dawley, rat, SD rats, oral gavage, day 15, 3 h post-dose
Protocol: To examine tissue concentrations following oral dosing, 5 male and 5 female Sprague Dawley (SD) rats were administered 404-02 at 1, 10, 50 or 150 mg/kg/day via oral gavage. Doses were prepared in sesame oil and individualized to body weight on the day of dosing. Animals were sacrificed 3 hours post-dose on day 15 of study following harvest of brain and lung specimens. Each sample collected was rinsed in 1× isotonic phosphate buffered saline and blotted dry before weighing. Tissue slices were transferred to cryovials and stored at −80° C. until processing and LC-MS/MS analysis. Standard curves were derived for 404-02 in these tissues.

[4] = test system: HO-1; assay: Nrf2 target gene induction, HO-1 mRNA (qPCR); type: cell-based, human; details: MDA-MB-435 cells, 250 nM; fold induction above DMSO control
Protocol: FIGS. 17-20. Induction of HO-1. MDA-MB-435 human melanoma cells were treated with vehicle (DMSO) or the indicated compounds and concentrations for 16 hours. HO-1 mRNA levels were quantified using qPCR and were normalized relative to a DMSO-treated sample run in parallel. Values are averages of duplicate wells.
FIG. 21. Induction of HO-1, TrxR1 and γ-GCS. MDA-MB-435 human melanoma cells were treated with vehicle (DMSO) or the indicated compounds and concentrations for 16 hours. HO-1, thioredoxin reductase-1 (TrxR1), and γ-glutamylcysteine synthetase (γ-GCS) mRNA levels were quantified using qPCR and were normalized relative to a DMSO-treated sample run in parallel. Values are averages of duplicate wells.
Nrf2 target gene induction. MDA-MB-435 human melanoma cells were treated with vehicle (DMSO) or the indicated compounds and concentrations for 16 hours. HO-1, thioredoxin reductase-1 (TrxR1), γ-glutamylcysteine synthetase (γ-GCS), and ferritin heavy chain mRNA levels were quantified using qPCR and were normalized relative to a DMSO-treated sample run in parallel. Values are averages of duplicate wells. Primer sequences are as follows.

[5] = test system: RAW264.7 macrophages; assay: Cell viability, WST-1 reagent; type: cell-based, mouse; details: Mus musculus, RAW264.7 (20 ng/ml IFNγ)
Procedure, shortened: (§1)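 Cells pre-treated with DMSO or compound at various nM concentrations for 2 h, then stimulated with 20 ng/ml recombinant mouse IFNγ for 24 h. Nitrite in medium measured by Griess reagent; viability read by WST-1.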

[6] = test system: IFNγ-induced NO production in RAW264.7 macrophages; assay: Suppression of IFNγ-induced NO production (Griess reagent); type: cell-based, mouse; details: Mus musculus; RAW264.7, 20 ng/ml IFNγ 24 h, 2 h pre-treatment
Procedure, shortened: as §1

[7] = 1 mg/kg/day, day 1, n=9/sex/dose level
[8] = 1 mg/kg/day, day 15, n=9/sex/dose level
[9] = 10 mg/kg/day, day 1, n=9/sex/dose level
[10] = 10 mg/kg/day, day 15, n=9/sex/dose level
[11] = 50 mg/kg/day, day 1, n=9/sex/dose level
[12] = 50 mg/kg/day, day 15, n=9/sex/dose level
[13] = oral gavage, 0.5 mg/kg/day, day 15
[14] = oral gavage, 5 mg/kg/day, day 15
[15] = oral gavage, 25 mg/kg/day, day 15
[16] = oral gavage, 75 mg/kg/day, day 15

Compound: CC1(C)CC[C@]2(C(=O)NCC(F)(F)F)CC[C@]3(C)[C@H](C(=O)C[C@@H]4[C@@]5(C)C=C(C#N)C(=O)C(C)(C)[C@@H]5CC[C@]43C)[C@@H]2C1 [Compound 63102, (4aS,6aR,6bR,8aR,12aR,12bR,14aR,14bS)-11-cyano-2,2,6a,6b,9,9,12a-heptamethyl-10,14-dioxo-N-(2,2,2-trifluoroethyl)-1,2,3,4,4a,5,6,6a,6b,7,8,8a,9,10,12a,12b,13,14,14a,14b-icosahydropicene-4a-carboxamide]
- Mean Maximum 404-02 Plasma Concentration (nM) ± SEM [1, 7]: 5.7 ± 1.1 nM
- Mean Maximum 404-02 Plasma Concentration (ng/mL) ± SEM [1, 7]: 3.3 ± 0.65 ng/mL
- Mean Maximum 404-02 Plasma Concentration (nM) ± SEM [1, 8]: 11.0 ± 1.6 nM
- Mean Maximum 404-02 Plasma Concentration (ng/mL) ± SEM [1, 8]: 6.3 ± 0.9 ng/mL
- Mean Maximum 404-02 Plasma Concentration (nM) ± SEM [1, 9]: 116 ± 28.7 nM
- Mean Maximum 404-02 Plasma Concentration (ng/mL) ± SEM [1, 9]: 66 ± 16.5 ng/mL
- Mean Maximum 404-02 Plasma Concentration (nM) ± SEM [1, 10]: 210 ± 42.3 nM
- Mean Maximum 404-02 Plasma Concentration (ng/mL) ± SEM [1, 10]: 144 ± 24.3 ng/mL
- Mean Maximum 404-02 Plasma Concentration (nM) ± SEM [1, 11]: 1241 ± 171 nM
- Mean Maximum 404-02 Plasma Concentration (ng/mL) ± SEM [1, 11]: 713 ± 98.2 ng/mL
- Mean Maximum 404-02 Plasma Concentration (nM) ± SEM [1, 12]: 1966 ± 199 nM
- Mean Maximum 404-02 Plasma Concentration (ng/mL) ± SEM [1, 12]: 1129 ± 114 ng/mL
- concentration at 3 h ([2]; both sexes, lung, oral gavage, 25 mg/kg/day, day 15, read-out: Mean 404-02 Lung Tissue Concentration (nM) ± SEM): 246 ± 87 nM
- excess of mean CNS concentration compared to the dose necessary to suppress inflammation in vitro ([2]; 0.5 mg/kg/day): 48 fold
- excess of mean CNS concentration compared to the dose necessary to suppress inflammation in vitro ([2]; 5 mg/kg/day): 44 fold
- excess of mean CNS concentration compared to the dose necessary to suppress inflammation in vitro ([2]; 25 mg/kg/day): 37 fold
- increase of mean lung tissue exposure compared to the dose necessary to suppress inflammation in vitro ([2]; 75 mg/kg/day): 133 fold
- excess of mean CNS concentration compared to the dose necessary to suppress inflammation in vitro ([2]; 75 mg/kg/day): 75 fold
- Mean 404-02 Lung Tissue Concentration (nM) ± SEM [2, 13]: 1227 ± 508 nM
- Mean 404-02 Lung Tissue Content (ng/g) ± SEM [2, 13]: 705 ± 292 ng/g
- Mean 404-02 CNS Tissue Content (ng/g) ± SEM ([2]; oral gavage, 0.5 mg/kg/day): 1198 ± 712 ng/g
- Mean 404-02 Lung Tissue Concentration (nM) ± SEM [2, 14]: 55 ± 27 nM
- Mean 404-02 Lung Tissue Content (ng/g) ± SEM [2, 14]: 24 ± 15 ng/g
- Mean 404-02 CNS Tissue Content (ng/g) ± SEM ([2]; oral gavage, 5 mg/kg/day): 1090 ± 564 ng/g
- Mean 404-02 CNS Tissue Concentration (nM) ± SEM [2, 14]: 1900 ± 982 nM
- Mean 404-02 Lung Tissue Content (ng/g) ± SEM [2, 15]: 141 ± 50 ng/g
- Mean 404-02 CNS Tissue Content (ng/g) ± SEM ([2]; oral gavage, 25 mg/kg/day): 930 ± 352 ng/g
- Mean 404-02 CNS Tissue Concentration (nM) ± SEM [2, 15]: 1618 ± 612 nM
- Mean 404-02 Lung Tissue Concentration (nM) ± SEM [2, 16]: 5929 ± 1435 nM
- Mean 404-02 Lung Tissue Content (ng/g) ± SEM [2, 16]: 3405 ± 824 ng/g
- Mean 404-02 CNS Tissue Content (ng/g) ± SEM ([2]; oral gavage, 75 mg/kg/day): 1898 ± 496 ng/g
- Mean 404-02 CNS Tissue Concentration (nM) ± SEM [2, 16]: 3305 ± 864 nM
- concentration at 3 h ([3]; brain (CNS tissue), 1 mg/kg/day, read-out: Mean 404-02 CNS Tissue Concentration (nM) ± SEM): 51 ± 11.8 nM
- concentration at 3 h ([3]; brain (CNS tissue), 1 mg/kg/day, read-out: Mean 404-02 CNS Tissue Content (ng/g = ng/mL) ± SEM): 29 ± 6.8 ng/g
- concentration at 3 h ([3]; brain (CNS tissue), 10 mg/kg/day, read-out: Mean 404-02 CNS Tissue Concentration (nM) ± SEM): 733 ± 173 nM
- concentration at 3 h ([3]; brain (CNS tissue), 10 mg/kg/day, read-out: Mean 404-02 CNS Tissue Content (ng/g = ng/mL) ± SEM): 421 ± 99 ng/g
- concentration at 3 h ([3]; brain (CNS tissue), 50 mg/kg/day, read-out: Mean 404-02 CNS Tissue Concentration (nM) ± SEM): 1310 ± 188 nM
- concentration at 3 h ([3]; brain (CNS tissue), 50 mg/kg/day, read-out: Mean 404-02 CNS Tissue Content (ng/g = ng/mL) ± SEM): 750 ± 108 ng/g
- concentration at 3 h ([3]; brain (CNS tissue), 150 mg/kg/day, read-out: Mean 404-02 CNS Tissue Concentration (nM) ± SEM): 1110 ± 143 nM
- concentration at 3 h ([3]; brain (CNS tissue), 150 mg/kg/day, read-out: Mean 404-02 CNS Tissue Content (ng/g = ng/mL) ± SEM): 640 ± 82 ng/g
- concentration at 3 h ([3]; lung, 1 mg/kg/day, read-out: Mean dh404 Lung Tissue Concentration (nM) ± SEM): 972 ± 215 nM
- concentration at 3 h ([3]; lung, 1 mg/kg/day, read-out: Mean dh404 Lung Tissue Content (ng/g = ng/mL) ± SEM): 558 ± 123 ng/g
- concentration at 3 h ([3]; lung, 10 mg/kg/day, read-out: Mean dh404 Lung Tissue Concentration (nM) ± SEM): 7020 ± 1620 nM
- concentration at 3 h ([3]; lung, 10 mg/kg/day, read-out: Mean dh404 Lung Tissue Content (ng/g = ng/mL) ± SEM): 4030 ± 928 ng/g
- concentration at 3 h ([3]; lung, 50 mg/kg/day, read-out: Mean dh404 Lung Tissue Concentration (nM) ± SEM): 12500 ± 2130 nM
- concentration at 3 h ([3]; lung, 50 mg/kg/day, read-out: Mean dh404 Lung Tissue Content (ng/g = ng/mL) ± SEM): 7160 ± 1220 ng/g
- concentration at 3 h ([3]; lung, 150 mg/kg/day, read-out: Mean dh404 Lung Tissue Concentration (nM) ± SEM): 16900 ± 2860 nM
- concentration at 3 h ([3]; lung, 150 mg/kg/day, read-out: Mean dh404 Lung Tissue Content (ng/g = ng/mL) ± SEM): 9720 ± 1640 ng/g
- HO-1 induction [4]: 3 fold
- IC50 [5]: > 200 nM
- IC50 [6]: ~45 nM
